The source of these data is US9238034B2, “FN14 antagonists and therapeutic uses thereof” (THE TRANSLATIONAL GENOMICS RESEARCH INSTITUTE, priority 2013, dated 2016).

Read-outs that look alike come from different tables or passages of the source.

The target of the assay is T1, Fn14-TWEAK binding (Homo sapiens, UniProt Q9NP84).
T1 construct: the human Fc fragment-tagged Fn14 extracellular domain (R&D Systems) was captured; purchased R&D Systems (Fn14-Fc); Peprotech (recombinant TWEAK)
T1 sequence (Q9NP84 28-80 limits assumed): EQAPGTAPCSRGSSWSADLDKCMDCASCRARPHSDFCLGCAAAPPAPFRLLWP
In words: Double sandwich ELISA small molecule screening of TWEAK binding to captured Fn14-Fc. As for the experimental part:
Double Sandwich ELISA. sTWEAK and sTWEAK variant proteins were synthesized as described above. The expression level of each IVTT synthesized sTWEAK protein was analyzed by western blot analysis and used in approximately equal amounts in the ELISA. To assay the binding of wild type sTWEAK and sTWEAK variants to Fn14, the human Fc fragment-tagged Fn14 extracellular domain (R&D Systems) was captured in an Immuno 96-microwell white plate by adding 100 μL of 0.025 μg/mL Fn14-Fc to wells coated with goat anti-human Fcγ fragment specific monoclonal antibody. After capture, the wells were washed 3× with Dulbecco's Phosphate Buffered Saline (DPBS) containing 0.05% Tween-20. Unbound sites were blocked by addition of 100 μL of blocking solution containing 0.05% Tween-20, 1% BSA, and 3% normal goat serum (NGS) in DPBS for 1 hr at room temperature. 0.01 μL of sTWEAK or sTWEAK variant made with the human IVTT kit or 2 μL of sTWEAK or sTWEAK variant made with the rabbit IVTT kit was diluted in 100 μL of sample diluent (DPBS+1% BSA+0.005% Tween-20) and then added to the wells for 2 hr followed by addition of 100 μL of 50 ng/mL biotinylated TWEAK detection antibody (R&D Systems) in sample diluent. Following incubation for additional 2 hr at room temperature, wells were washed 3× with DPBS containing 0.05% Tween-20 and bound biotinylated TWEAK antibody was detected by incubation with an HRP-conjugated streptavidin. The total luminescent signal was obtained using Femto ELISA kit (Pierce Biochemical) and compared to the standard curve signal obtained from the binding of 0-4000 pg/mL recombinant TWEAK (Peprotech inc) to Fn14-Fc. Using 5-parameter logistic curve fitting for standard curve analysis (Sigmaplot 11.0, SyStat Software Inc.), binding of sTWEAK or TWEAK variant to Fn14-Fc was determined. The data represents that observed for at least four replicate assays.
The small molecule screening was performed using the ELISA assay described above with minor modifications. Briefly, after capturing Fn14-Fc in the microwell plate, 80 μl of drug solution in sample diluent was added to desired wells and incubated for 2 hrs at room temperature. Subsequently, 20 μL of 2500 pg/mL (5×) TWEAK was added to each well to achieve final TWEAK concentration of 500 pg/mL and incubated for additional 2 hr at room temperature. Bound TWEAK was detected as described in the protocol above. All small molecule inhibitors were screened at 25 μM final concentration (final DMSO concentration of 0.125%) in duplicate. Cyclohexamide, a non-specific small molecule, at 25 μM concentration was used as negative control. The anti-Fn14 antibody ITEM-4, added at 2.5 μg/mL, was used as a positive control for complete blockade of TWEAK binding. Reduction in TWEAK binding due to compound addition or controls was calculated by using standard curve (Separate standard curve was obtained for every screening plate).

Setting [1] is: Table 5, 25 μM, average of duplicate, read-out: % Reduction in TWEAK Binding, Average.
The mark [2] stands for this setting: Table 5, 25 μM, replicate 1, read-out: % Reduction in TWEAK Binding, Data 1.
Where [3] appears, read: Table 5, 25 μM, replicate 2, read-out: % Reduction in TWEAK Binding, Data 2.
Where [4] appears, read: Table 4, second screening iteration, 25 μM, average of duplicate, read-out: % Reduction in TWEAK Binding, Average.
[5] abbreviates: Table 4, second screening iteration, 25 μM, replicate 1, read-out: % Reduction in TWEAK Binding, Data 1.
[6] abbreviates: Table 4, second screening iteration, 25 μM, replicate 2, read-out: % Reduction in TWEAK Binding, Data 2.
The mark [7] stands for this setting: second screening iteration, 25 μM, average, read-out: inhibition of TWEAK binding to Fn14.
Setting [8] is: Table 3, first round of screening, 25 μM, average of duplicate, read-out: % Reduction in TWEAK Binding, Average.
The mark [9] stands for this setting: Table 3, first round of screening, 25 μM, replicate 1, read-out: % Reduction in TWEAK Binding, Data 1.
Where [10] appears, read: Table 3, first round of screening, 25 μM, replicate 2, read-out: % Reduction in TWEAK Binding, Data 2.

On to `CCS(=O)(=O)c1ccc(OCc2cc(=O)n3oc(C)cc3n2)c(NC(=O)COc2ccccc2C)c1`, for which the inhibition at 25 µM under setting [1] came to 19.6%, the inhibition at 25 µM under setting [2] came out at 22.2% and the inhibition at 25 µM under setting [3] stood at 17.1%.

With `O=C(c1csc(S(=O)(=O)NCc2ccccn2)c1)N1CCCCCC1`, the inhibition at 25 µM by setting is: under setting [1], 12%; under setting [2], 15.3%; under setting [3], 8.76%.

Turning to `O=C(NCc1ccc(F)cc1)C1CCCN(c2nc3c(-c4ccccc4)csc3c(=O)[nH]2)C1` (centres unmarked), the inhibition at 25 µM is, setting by setting: under setting [1], 22%; under setting [2], 28.1%; under setting [3], 15.9%.

Turning to `O=C(NCc1ccncc1)C1CCCN(c2nc3c(-c4ccccc4)csc3c(=O)[nH]2)C1` (centres unmarked), the inhibition at 25 µM stood at 14.3% under setting [1], 13.4% under setting [2] and 15.2% under setting [3].

As for `Cc1cc(NC(=O)CSc2ccccc2)ccc1Cl` [Compound 1068-0114], the inhibition at 25 µM under setting [4] was 13.4%; the inhibition at 25 µM under setting [5] was found to be 21.9%; the inhibition at 25 µM under setting [6] amounted to 4.93%; the inhibition at 25 µM under setting [1] was 13.4%; the inhibition at 25 µM under setting [2] came to 21.9%; the inhibition at 25 µM under setting [3] amounted to 4.93%.

Consider `COc1ccc(-c2nnc(SCC(=O)Nc3ccccc3OC)nc2-c2ccc(OC)cc2)cc1` [Compound 3809-1067], for which the inhibition at 25 µM under setting [4] came to 32.1%; the inhibition at 25 µM under setting [5] was 34.5%; the inhibition at 25 µM under setting [6] was 29.8%; the inhibition at 25 µM under setting [1] was found to be 32.1%; the inhibition at 25 µM under setting [2] came out at 34.5%; the inhibition at 25 µM under setting [3] came to 29.8%. Further, the inhibition at 25 µM under setting [7] came out at 32.1%.

Consider `O=C(CSc1cccc2cccnc12)Nc1ccc2ccccc2c1` [Compound 4084-0026], for which the inhibition at 25 µM turned out to be 11.1% under setting [4]; 15.3% under setting [5]; 6.85% under setting [6]; 11.1% under setting [1]; 15.3% under setting [2]; 6.85% under setting [3].

With `CCC(=O)Nc1ccccc1-c1ccccc1NC(=O)CC` [Compound 4478-7056], the inhibition at 25 µM by setting is: under setting [4], 16.5%; under setting [5], 15%; under setting [6], 18%; under setting [1], 16.5%; under setting [2], 15%; under setting [3], 18%.

As for `O=C(CSc1nnc(-c2ccccc2)c(-c2ccccc2)n1)Nc1ccc(S(=O)(=O)Nc2nccs2)cc1` [Compound 4981-0539], the inhibition at 25 µM is, setting by setting: under setting [4], 11.7%; under setting [5], 11.3%; under setting [6], 12.2%; under setting [1], 11.7%; under setting [2], 11.3%; under setting [3], 12.2%.

On to `CCCSc1nnc(-c2ccccc2NC(=O)CC)c(O)n1` [Compound 5511-0142], for which the inhibition at 25 µM by setting is: under setting [4], 10.5%; under setting [5], 7.2%; under setting [6], 13.8%; under setting [1], 10.5%; under setting [2], 7.2%; under setting [3], 13.8%.

As to `C=CCSc1nnc(-c2ccccc2NC(=O)CC)c(O)n1` [Compound 6969-1085], the inhibition at 25 µM was 16.8% under setting [4]; 15.5% under setting [5]; 18% under setting [6]; 16.8% under setting [1]; 15.5% under setting [2]; 18% under setting [3].

Turning to `CCCC(=O)Nc1ccccc1-c1nnc(SC)nc1O` [Compound 7033-0155], the inhibition at 25 µM under setting [4] is 20.2%; the inhibition at 25 µM under setting [5] worked out at 19.5%; the inhibition at 25 µM under setting [6] was determined as 20.9%; the inhibition at 25 µM under setting [1] was 20.2%; the inhibition at 25 µM under setting [2] turned out to be 19.5%; the inhibition at 25 µM under setting [3] was found to be 20.9%.

On to `COc1ccc(-c2nnc(SCC(=O)Nc3cccc4ccccc34)nc2-c2ccccc2)cc1` [Compound 8014-3315], for which the inhibition at 25 µM by setting is: under setting [4], 15.7%; under setting [5], 18.6%; under setting [6], 12.7%; under setting [1], 15.7%; under setting [2], 18.6%; under setting [3], 12.7%.

Turning to `Cc1cccc(-n2c(=O)c3[nH]c4ccccc4sc=3c2=O)c1` [Compound 8211-0292], the inhibition at 25 µM by setting is: under setting [4], 36.7%; under setting [5], 35.6%; under setting [6], 37.8%; under setting [1], 36.7%; under setting [2], 35.6%; under setting [3], 37.8%. Besides, under setting [7], the inhibition at 25 µM is 36.7%.

Take `Nc1ccccc1SCC(=O)Nc1cccc2nsnc12` [Compound 8415-09495]: the inhibition at 25 µM under setting [4] amounted to 19.5%; the inhibition at 25 µM under setting [5] is 17.8%; the inhibition at 25 µM under setting [6] turned out to be 21.2%; the inhibition at 25 µM under setting [1] was 19.5%; the inhibition at 25 µM under setting [2] is 17.8%; the inhibition at 25 µM under setting [3] worked out at 21.2%.

For the compound `Cc1cccc(NC(=O)CS(=O)(=O)c2ccccc2)c1` [Compound C200-5958], the “% Reduction in TWEAK Binding, Average” value (Table 4, second screening iteration, 25 μM, average of duplicate) is on record as −5.743%. The “% Reduction in TWEAK Binding, Data 2” value (Table 4, second screening iteration, 25 μM, replicate 2) is on record as −5.743%.

On to `CCn1c(=O)c(S(=O)(=O)c2ccccc2)c(O)c2ccccc21` [Compound C200-7197], for which the inhibition at 25 µM under setting [4] turned out to be 26.3%; the inhibition at 25 µM under setting [5] came out at 27.4%; the inhibition at 25 µM under setting [6] is 25.1%; the inhibition at 25 µM under setting [1] amounted to 26.3%; the inhibition at 25 µM under setting [2] is 27.4%; the inhibition at 25 µM under setting [3] turned out to be 25.1%.

Consider `O=C1CN(C(=O)CSc2ccccc2)c2ccccc2N1` [Compound D479-0271], for which the inhibition at 25 µM amounted to 19.7% under setting [4]; 20.9% under setting [5]; 18.5% under setting [6]; 19.7% under setting [1]; 20.9% under setting [2]; 18.5% under setting [3].

As for `COc1ccc(C2N[C@H](C(=O)O)Cc3c2[nH]c2ccccc32)cc1O` (some centres unmarked) [Compound D715-0114], the inhibition at 25 µM under setting [8] stood at 10.3%; the inhibition at 25 µM under setting [9] worked out at 0.98%; the inhibition at 25 µM under setting [10] came to 19.6%; the inhibition at 25 µM under setting [1] is 10.3%; the inhibition at 25 µM under setting [2] amounted to 0.98%; the inhibition at 25 µM under setting [3] was found to be 19.6%. Besides, for the setting “first round of screening, 25 μM, read-out: single point activities / individual data points, inhibition of the Fn14-TWEAK interaction”, the inhibition at 25 µM was more than 15%.

Take `COC(=O)[C@H]1Cc2c([nH]c3ccccc23)CN1` [Compound D715-0140]: the inhibition at 25 µM by setting is: under setting [8], 11.7%; under setting [9], 9.77%; under setting [10], 13.6%; under setting [1], 11.7%; under setting [2], 9.77%; under setting [3], 13.6%.

As to `O=C(Cc1c[nH]c2ccccc12)Nc1ccc2oc(=O)ccc2c1` [Compound D715-0817], the inhibition at 25 µM is, setting by setting: under setting [8], 10.3%; under setting [9], 9.04%; under setting [10], 11.5%; under setting [1], 10.3%; under setting [2], 9.04%; under setting [3], 11.5%.
